Laboratory results as given in patent publication US20120003339A1, “COMPOSITIONS AND METHODS FOR CONTROLLING BLOOD GLUCOSE LEVELS” (priority 2010, published 2012).

Columns and labels:
Type in all cases: in vivo, human
[1] = Example I: blood glucose levels and side effects in a subject with type 2 diabetes; details: person, blood glucose 17 to 19 mmol/L at diagnosis, first prescribed drug
[2] = Example II: morning (fasting) and two-hour after eating blood glucose readings, A1c and side effects in a subject with type 2 diabetes; details: 500 mg once a day
Experimental: A subject had been diagnosed with type 2 diabetes. Their fasting glucose reading was 11.6 mmol/L and A1c was 8.9%. Due to arthritis in their knee, exercise was not an option. […] They were prescribed 500 mg of Ratio-Metformin once a day. […] According to the endocrinologist, the subject's morning readings (fasting blood glucose levels) were in the range from 8.1 to 10.8 mmol/L, and their two-hour after eating readings were 10 to 13.8 mmol/L.
Due to the adverse side effects of Metformin, the subject decided to stop taking the prescribed daily Metformin and replace it with the composition and method of the present invention. […]
The first cycle was about three months in length. […] Within a week that the subject was treated with the method of the invention, their morning readings were in the 4 to 6.5 mmol/L range and their two hours after eating range were well below 9 mmol/L. It should be noted that, for three weeks during this period, the patient was on vacation in France, enjoying fine French food and wine. A month after finishing the first cycle, the subject took a second fasting sugar test and a A1c test, the readings were 6.6 mmol/L and 6%, respectively.
The subject was treated with three cycles of the composition and method of the present invention. […] Their morning readings were in the range of 4.3 to 6.5 mmol/L, and their two hour after eating readings were in the range of 6 to 8.5 mmol/L. […]

[3] = Example III: blood glucose levels in a morbidly obese subject with type 2 diabetes; details: person, 380 lb, on traditional medication
Experimental: A subject weighed 380 lb was diagnosed with type 2 diabetes and was considered morbidly obese. The subject was prescribed Metformin. With traditional medication their blood glucose levels were at about 19 mmol/L, well above the normal range. Although the subject was considered for gastric bypass surgery, their medical doctors would not operate because their blood glucose could not be controlled.
The subject started taking 25 mg each of Gudmar, Kalijiri, Kariyatu, and Neempan tablets three times a day. Two weeks after the subject started the taking the herbal composition of the invention, the subject's blood glucose levels had dropped to 5.5 mmol/L, within the normal range. As a result, the subject was able to proceed with the surgery.

Row | Structure (SMILES) | blood glucose levels (effect in words) [1] | side effect (in words) [2] | blood glucose levels (effect in words) ([2]; fasting glucose 11.6 mmol/L and A1c 8.9% at diagnosis) | blood glucose levels [3]
1 | CN(CCOc1ccc(CC2SC(=O)NC2=O)cc1)c1ccccn1 (stereo not shown) [Avandia, rosiglitazone] | did not reduce their blood glucose levels to the normal range | – | – | –
2 | CN(C)C(=N)N=C(N)N [Metformin] | – | left them feeling confused, “in a fog.” | did reduce their blood glucose levels | about 19 mmol/L
